Measurements from PMC6271701, “An Unusual 2,3-Secotaraxerene and Other Cytotoxic Triterpenoids from Pleiocarpa pycnantha (Apocynaceae) Leaves Collected from Nigeria” (Molecules, 2014).
Values belong to the molecule of their own block, whether it stands above or below them.

Assays:
[1] = tested on: MCF-7 breast tumour cell line; details: read-out: GI50 MCF-7; in vitro; cited from earlier work
[2] = tested on: ME 180 cervical tumour cell line; details: read-out: GI50 ME 180; in vitro; cited from earlier work
[3] = tested on: PC3 prostate tumour cell line; details: read-out: GI50 PC3; in vitro; cited from earlier work
[4] = tested on: HeLa cells; assay: WST-1 cytotoxicity assay, HeLa cells; type: cell-based, human; details: for IC50: WST-1 assay, 24 h treatment; for SI HeLa: Selectivity Index = IC50(KMST-6)/IC50(HeLa)
Description: (§1) HeLa, HT-29, MCF-7 and KMST-6 cells were prepared from our laboratory stocks. Briefly, cell monolayers were maintained in Dulbecco’s modified Eagle’s (DMEM, Lonza Group Ltd., Base, Switzerland) medium with phenol red supplemented with 10% foetal bovine serum (FBS, Biochrom AG, Berlin, Germany) and 1% Penicillin–streptomycin (Lonza Group Ltd.). All cells were maintained in a humidified incubated at 37 °C in an atmosphere of 5% CO2. The cells were harvested using trypsin (Lonza Group Ltd.), and viable cell concentrations were determined using the Countess® Automated Cell Counter (Invitrogen, CA, USA). 5 × 10^4 viable cells were added to each well of a 96-well tissue culture plate and incubated overnight at 37 °C under 5% CO2 in a humidified incubator to allow cells to attach to wells.
(§2) Cell viability was measured using the WST-1 assay (Roche Diagnostics GmbH, Mannheim, Germany) as previously described by Ngamwongsatit et al., 2008. Cells were plated in 96-well cell culture plates at a concentration of 5 × 10^4 cells/well in 100 µL culture medium. After 24 h the cells were treated with increasing concentrations of ethanol extract (0–2 mg/mL), fractions (0–2 mg/mL) and purified compounds (0–250 µg/mL) for a further 24 h. The extracts, fractions and compounds were prepared in DMSO and then mixed with the culture medium. The final concentrations of the DMSO were less than 0.1%. Following 24 h treatment, 10 µL of cell proliferation reagent WST-1 was added and the plates were incubated for 4 h at 37 °C under 5% CO2 in a humidified incubator. The plates wereshakenfor 1 min on a shaker and the absorbance of the samples were measured at 450 nm (reference wavelength was 750 nm) on a micro-plate reader. The cell viability was calculated using the following formula: % Viability = ODtreated well − ODblank/ODuntreated well − ODblank(1) IC50 values were calculated using Prism Graph pad software. Triplicate experiments were conducted and the results expressed as mean ± SEM.

[5] = tested on: HT-29 cells; assay: WST-1 cytotoxicity assay, HT-29 cells; type: cell-based, human; details: for IC50: WST-1 assay, 24 h treatment; for SI HT-29: Selectivity Index = IC50(KMST-6)/IC50(HT-29)
Description: as §1, §2

[6] = tested on: MCF-7 cells; assay: WST-1 cytotoxicity assay, MCF-7 cells; type: cell-based, human; details: for IC50: WST-1 assay, 24 h treatment; for SI MCF-7: Selectivity Index = IC50(KMST-6)/IC50(MCF-7)
Description: as §1, §2

[7] = tested on: KMST-6 cells; assay: WST-1 cytotoxicity assay, non-cancerous KMST-6 fibroblasts; type: cell-based, human; details: WST-1 assay; for IC50: 24 h treatment, non-cancerous fibroblast
Description: as §1, §2

[8] = E/Z isomer stability followed by 1H-NMR; type: physicochemical; details: 2–3 months under normal working conditions
Text: Triterpene esters containing the E-coumaric acid isomer have been reported from natural sources, while, the co-existence of E- and Z-coumaric acid esters of ursolic acid (compounds 2 and 3) in Plumeria obtusa of the same family has been reported once.

[9] = tested on: acetyl CoA cholestryl acyl tranferase (ACAT); design: method as in PMID 10425145; details: cited from earlier work
[10] = Stability of the hydrolysed derivative in organic solvents; type: physicochemical; details: organic solvents such as methanol and chloroform
Text: Compound 4 was isolated as colourless needle-like crystals with molecular formula of C30H48O2 on the basis of TOF-ESI-MS m/z 441.3735[M+H]^+. […] The signal at δ 174.8 (C-2), 77.9 (C-3) in addition to oxygenated methylene protons at δ 3.79 and 4.08 (CH2-3) indicated the presence of a lactone group. […] The NMR data were assigned unambiguously from 2D NMR spectral analysis of compound 4 and its hydrolyzed product 5. The structure was finally established from X-ray diffraction studies. Figure 2 illustrates the perspective view of the molecule with its relative configuration. The compound was thus assigned as 2,3-seco-taraxer-14-en-2,3-lactone and given the name pycanocarpine. After alkaline hydrolysis, compound 4 produced the unstable derivative viz 2,3-seco-3-hydroxy-taraxer-14-en-3-oic acid (5) as an off-white amorphous powder. The TOF-ESI-MS indicated an m/z 459.3889 [M+H]^+. It was noticeable that the free carboxylic and hydroxyl groups would easily reform the lactone ring after a short time in organic solvents such as methanol and chloroform. The NMR data of 5 is similar to the parent compound 4 and is illustrated in Table 1. Minor changes were observed between 4 and 5 for carbons C-11, -23, -24, and -26. The stereochemistry of both compounds, especially ring A, may partially explain this. In 4 the carbonyl group is directed into the same plan similar to C-24, -26 and -11.

[11] = at the dosages used (0–250 µg/mL)

SMILES: C[C@H]1[C@H](C)CC[C@]2(C(=O)O)CC[C@]3(C)C(=CC[C@@H]4[C@@]5(C)CC[C@H](OC(=O)/C=C\c6ccc(O)cc6)C(C)(C)[C@@H]5CC[C@]43C)[C@H]12 (relative stereo) [cis-3-O-p-hydroxycinnamoyl ursolic acid]
GI50 [1]: ~20 µM | GI50 [2]: ~20 µM | GI50 [3]: ~20 µM

SMILES: C[C@H]1[C@H](C)CC[C@]2(C(=O)O)CC[C@]3(C)C(=CC[C@@H]4[C@@]5(C)CC[C@H](O)C(C)(C)[C@@H]5CC[C@]43C)[C@H]12 [Compound 1, ursolic acid]
IC50 ([4]; Homo sapiens, HeLa, 24 h): 10 µM | SI HeLa [4]: 10.0 | IC50 ([5]; Homo sapiens, HT-29, 24 h): 10 µM | SI HT-29 [5]: 10.0 | IC50 ([6]; Homo sapiens, MCF7, 24 h): 20 µM | SI MCF-7 [6]: 5.0 | IC50 ([7]; Homo sapiens, Fibroblast, 24 h): 100 µM

SMILES: CC1CCC2(C(=O)O)CCC3(COC(=O)C=Cc4ccc(O)cc4)C(=CCC4C5(C)CCC(O)C(C)(C)C5CCC43C)C2C1C (stereo not shown) [Compound 2, 27-p-E-coumaroloxyursolic acid]
SI HeLa [4]: 2 | IC50 [4]: 50 µM | SI HT-29 [5]: 1 | IC50 [5]: 100 µM | SI MCF-7 [6]: 1.7 | IC50 [6]: 60 µM | IC50 [7]: 100 µM | E/Z isomerization of the isomers (1H-NMR) [8]: did not observe any such change

More lines, main results first:

E/Z isomerization of the isomers (1H-NMR) [8]: did not observe any such change
SMILES: CC1CCC2(C(=O)O)CCC3(COC(=O)C=Cc4ccc(O)cc4)C(=CCC4C5(C)CCC(O)C(C)(C)C5CCC43C)C2C1C (stereo not shown) [Compound 3, 27-p-Z-coumaroyloxyursolic acid]
SI HeLa [4]: 1.5 | IC50 [4]: 200 µM | SI HT-29 [5]: 1.3 | IC50 [5]: 230 µM | SI MCF-7 [6]: 1.7 | IC50 [6]: 180 µM | cytotoxicity to non-cancerous cell line KMST-6 (in words) [7]: non- cytotoxic | IC50 [7]: 300 µM | activity against ACAT (in words) [9]: potent activity

melting point: 246 to 249 °C
SMILES: CC1(C)CCC2(C)CC=C3C(C)(CCC4C3(C)CCC3C(C)(C)COC(=O)CC34C)C2C1 (stereo not shown) [Compound 4, 2,3-seco-taraxer-14-en-2,3-lactone]
IC50 ([4]; Homo sapiens, HeLa, 24 h): > 600 µM | cytotoxicity on HeLa cells (in words) [4, 11]: did not show cytotoxicity | IC50 ([5]; Homo sapiens, HT-29, 24 h): > 600 µM | cytotoxicity on HT-29 cells (in words) [5, 11]: did not show cytotoxicity | IC50 ([6]; Homo sapiens, MCF7, 24 h): 20 µM | SI MCF-7 [6]: >30 | IC50 ([7]; Homo sapiens, Fibroblast, 24 h): > 600 µM | cytotoxicity to non-cancerous cell line KMST-6 (in words) [7]: non- cytotoxic

stability (re-lactonisation) [10]: unstable | melting point: 237 to 241 °C
SMILES: CC1(C)CC[C@]2(C)CC=C3[C@]4(C)CCC(C(C)(C)CO)[C@](C)(CC(=O)O)C4CC[C@@]3(C)C2C1 (stereo partly shown) [Compound 5, 2,3-seco-3-hydroxy-taraxer-14-en-3-oic acid]
IC50 ([4]; Homo sapiens, HeLa, 24 h): 180 µM | SI HeLa [4]: 0.06 | IC50 ([5]; Homo sapiens, HT-29, 24 h): 170 µM | SI HT-29 [5]: 0.06 | IC50 ([6]; Homo sapiens, MCF7, 24 h): 10 µM | SI MCF-7 [6]: 1 | IC50 ([7]; Homo sapiens, Fibroblast, 24 h): 10 µM
